Laboratory results published in US20230331803A1, “CO-AGONISTS OF THE GLP-1 AND AMYLIN RECEPTORS” (priority 2020, published 2023).
Like-named read-outs stand apart in the source and are kept apart here. Starred links: 1 amine or outer side, 2 acyl side, 3 side chain; linkers in the order of their positions; H or OH if unused. Non-standard residues stand in square brackets, D forms with d. Groups on a side chain read outwards from the residue. *: point of attachment. C20 diacid = O=C(O)CCCCCCCCCCCCCCCCCCC(=O)*; C18 diacid = O=C(O)CCCCCCCCCCCCCCCCC(=O)*; C16 diacid = O=C(O)CCCCCCCCCCCCCCC(=O)*; γGlu = O=C(O)[C@H](CCC(=O)[*:2])N[*:1]; C14 diacid = O=C(O)CCCCCCCCCCCCC(=O)*; AEEA = NCCOCCOCC(=O)O; Aib = CC(C)(N)C(=O)O

Columns and labels:
human GLP-1 receptor = target: T1, human GLP-1 receptor (Homo sapiens, UniProt P43220); assay: Human GLP-1 receptor in vitro potency assay (CRE-luciferase reporter, BHK cells); type: cell-based
T1 construct: expressed in transfected cells; host or cells: BHK (Baby Hamster Kidney) cells, clone BHK 467-12A KZ-10, stably transfected, with CRE-luciferase reporter
T1 sequence (P43220 24-463): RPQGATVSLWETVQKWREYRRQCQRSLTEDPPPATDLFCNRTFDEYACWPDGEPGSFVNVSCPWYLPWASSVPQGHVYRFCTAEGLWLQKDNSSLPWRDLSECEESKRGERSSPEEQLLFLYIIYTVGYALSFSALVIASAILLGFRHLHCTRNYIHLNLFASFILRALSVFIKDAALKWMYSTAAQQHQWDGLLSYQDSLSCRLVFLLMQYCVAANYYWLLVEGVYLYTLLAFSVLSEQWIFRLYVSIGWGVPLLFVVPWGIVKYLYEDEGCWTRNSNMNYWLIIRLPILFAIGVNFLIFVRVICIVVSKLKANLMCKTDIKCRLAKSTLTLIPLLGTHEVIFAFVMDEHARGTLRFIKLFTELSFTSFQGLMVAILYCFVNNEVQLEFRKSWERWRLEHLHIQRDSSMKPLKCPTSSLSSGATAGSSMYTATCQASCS
Experimental: It is thus possible to measure GLP-1 receptor activity using a CRE-luciferase reporter gene introduced into Baby Hamster Kidney (BHK) cells co-expressing the GLP-1 receptor.
Cells were aliquoted and stored at -180° C. until use.
Plates were sealed and incubated at room temperature with gentle shaking for 30 minutes while protected from light. Luminescence was detected on a luminescence plate reader e.g. a Synergy 2 (BioTek).

[1] = target: T2, human amylin receptor (hAmyR3) (Homo sapiens, UniProt O60896+P30988); assay: Human amylin receptor in vitro potency assay (CRE-luciferase reporter, BHK cells); type: cell-based;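 further: BHK cells expressing human calcitonin receptor plus RAMP3 (amylin-3 receptor) with a CRE-luciferase reporter, agonist activity read as luminescence from cAMP-driven transcription, 7-point serial dilutions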
T2 construct: host or cells: BHK cells (Hollex-1 line: human calcitonin receptor (a) + CRE-Luc), further transfected with human RAMP3
T2 sequence (P30988 25-474): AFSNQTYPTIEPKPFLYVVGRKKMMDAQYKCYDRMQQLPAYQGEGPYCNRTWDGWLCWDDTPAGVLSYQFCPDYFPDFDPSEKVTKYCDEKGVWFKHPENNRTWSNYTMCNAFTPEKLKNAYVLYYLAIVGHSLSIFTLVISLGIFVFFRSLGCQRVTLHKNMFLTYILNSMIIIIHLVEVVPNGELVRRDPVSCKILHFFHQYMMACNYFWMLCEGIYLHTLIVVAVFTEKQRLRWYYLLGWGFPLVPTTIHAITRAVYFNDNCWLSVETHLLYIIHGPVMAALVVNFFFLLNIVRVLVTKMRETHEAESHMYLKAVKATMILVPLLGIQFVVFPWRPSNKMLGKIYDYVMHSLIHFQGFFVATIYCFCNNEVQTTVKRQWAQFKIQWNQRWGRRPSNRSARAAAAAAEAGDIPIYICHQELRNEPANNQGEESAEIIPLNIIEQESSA
T2 sequence (O60896 24-148): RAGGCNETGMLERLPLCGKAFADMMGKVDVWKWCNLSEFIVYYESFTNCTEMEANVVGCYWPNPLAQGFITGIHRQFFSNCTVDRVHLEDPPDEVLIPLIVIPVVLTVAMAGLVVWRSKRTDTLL

[2] = Table 4a, BHK cells expressing human GLP-1R, CRE-Luc, 3 hours, read-out: Human GLP-1R potency [EC50 (pM)]
[3] = Table 4a, BHK hAmyR3/CRE-Luc cells, 3 hours, read-out: Human AmyR3 potency [EC50 (pM)]

Row | Compound | EC50 (human GLP-1 receptor) [pM] | EC50 [1] [pM] | EC50 (human GLP-1 receptor; [2]) [pM] | EC50 [1, 3] [pM]
1 | CC[C@H](C)[C@H](NC(=O)[C@H](Cc1ccccc1)NC(=O)[C@H](CCC(=O)O)NC(=O)[C@H](CCCCNC(=O)COCCOCCNC(=O)COCCOCCNC(=O)CC[C@H](NC(=O)CCCCCCCCCCCCCCCCC(=O)O)C(=O)O)NC(=O)[C@H](C)NC(=O)[C@H](C)NC(=O)[C@H](CCC(N)=O)NC(=O)CNC(=O)[C@H](CCC(=O)O)NC(=O)[C@H](CC(C)C)NC(=O)[C@H](Cc1ccc(O)cc1)NC(=O)[C@H](CO)NC(=O)[C@H](CO)NC(=O)[C@@H](NC(=O)[C@H](CC(=O)O)NC(=O)[C@H](CO)NC(=O)[C@@H](NC(=O)[C@H](Cc1ccccc1)NC(=O)[C@@H](NC(=O)CNC(=O)[C@H](CCC(=O)O)NC(=O)C(C)(C)NC(=O)[C@@H](N)Cc1c[nH]cn1)[C@@H](C)O)[C@@H](C)O)C(C)C)C(=O)N[C@@H](C)C(=O)N[C@@H](Cc1c[nH]c2ccccc12)C(=O)N[C@@H](CC(C)C)C(=O)N[C@H](C(=O)N[C@@H](CCCNC(=N)N)C(=O)NCC(=O)N[C@@H](CCCNC(=N)N)C(=O)NCC(=O)NCC(=O)N[C@@H](CCC(N)=O)C(=O)N[C@@H](CCC(=O)O)C(=O)N1CCC[C@H]1C(=O)NCC(=O)N[C@@H](CCC(N)=O)C(=O)N[C@@H](CCC(=O)O)C(=O)N1CCC[C@H]1C(=O)N[C@@H](CCCCNC(=O)COCCOCCNC(=O)COCCOCCNC(=O)CC[C@H](NC(=O)CCCCCCCCCCCCCCCCC(=O)O)C(=O)O)C(=O)N[C@@H](CCC(=O)O)C(=O)N[C@@H](C)C(=O)N[C@@H](CO)C(=O)N[C@@H](CCC(=O)O)C(=O)N[C@@H](CC(C)C)C(=O)N[C@@H](CO)C(=O)N[C@H](C(=O)N[C@@H](C)C(=O)N[C@@H](C)C(=O)N[C@@H](CC(C)C)C(=O)NCC(=O)N[C@@H](CCCNC(=N)N)C(=O)N[C@@H](CC(C)C)C(=O)N[C@@H](CO)C(=O)N[C@@H](C)C(=O)N[C@@H](CCC(=O)O)C(=O)N[C@@H](CC(C)C)C(=O)N[C@@H](Cc1c[nH]cn1)C(=O)N[C@@H](CCC(=O)O)C(=O)N[C@@H](CC(C)C)C(=O)N[C@@H](C)C(=O)N[C@H](C(=O)N[C@@H](CC(C)C)C(=O)N1CCC[C@H]1C(=O)N[C@@H](CCCNC(=N)N)C(=O)N[C@H](C(=O)N[C@@H](CCC(=O)O)C(=O)N[C@H](C(=O)NCC(=O)N[C@@H](CO)C(=O)NCC(=O)N[C@@H](CO)C(=O)N1CCC[C@H]1C(N)=O)[C@@H](C)O)[C@@H](C)O)[C@@H](C)O)[C@@H](C)O)C(C)C [Compound 0071] | 69.4 | 159 |  | 
2 | H-H[Aib]EGTFTSDVSSYLEEQAAREFIAWLVRGRK([AEEA-AEEA-γGlu-C18 diacid])EASELSTAALGRLSAELHELATLPRTETGSGSP-NH2 [Compound 0115] |  |  | 2.2 | 22.8
3 | H-H[Aib]EGTFTSDVSK([AEEA-AEEA-γGlu-C14 diacid])YLEEQAVREFIAK([AEEA-AEEA-γGlu-C14 diacid])LVRGRGGGEASELSTAALGRLSAELHELATLPRTETGSGSP-NH2 [Compound 0484] |  |  | 72.8 | 32.5
4 | H-H[Aib]EGTFTSDVSSYLEEQAAREFIAWLVRGK([AEEA-AEEA-γGlu-C16 diacid])GGGGGEASELSTAALGRLSAELHELATLK([AEEA-AEEA-γGlu-C16 diacid])RTETGSGSP-NH2 [Compound 0284] |  |  | 41.7 | 32.8
5 | H-H[Aib]EGTFTSDVSK([γGlu-γGlu-γGlu-γGlu-C20 diacid])YLEEQAAREFIEWLVRGAAEASELSTAALGRLSAELHELATLPRTETGSGSP-NH2 [Compound 0632] |  |  | 18.8 | 148
